Experimental data reported in PMC8718748, “Molecular Dissection of the Primase and Polymerase Activities of Deep-Sea Phage NrS-1 Primase-Polymerase” (Frontiers in Microbiology, 2021).

Assays:
[1] = biological target: T1, N300 (Nitratiruptor phage NrS-1, UniProt M5AAG8); assay: X-ray crystal structure of complex (SeMet, SAD, […] A); type: binding; details: Ca2+ (200 mM calcium acetate in crystals), pH 7.0; active site, 3'-site nucleotide
T1 construct: gene 28; N-terminal 300 residues (Prim/Pol domain + helix bundle domain) of NrSPol; pET28b, 6xHis with TEV site, tag cut for crystals (SeMet for ddCTP crystal); E. coli
T1 sequence (M5AAG8 1-300): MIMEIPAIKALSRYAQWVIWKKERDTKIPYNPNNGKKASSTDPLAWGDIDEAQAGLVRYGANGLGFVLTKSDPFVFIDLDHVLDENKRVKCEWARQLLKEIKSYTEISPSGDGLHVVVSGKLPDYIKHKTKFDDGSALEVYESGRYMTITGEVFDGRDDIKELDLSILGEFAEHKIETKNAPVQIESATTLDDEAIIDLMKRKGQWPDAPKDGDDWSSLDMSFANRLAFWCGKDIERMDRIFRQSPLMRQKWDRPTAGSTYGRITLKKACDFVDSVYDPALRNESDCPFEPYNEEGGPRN

[2] = biological target: T1, N300; assay: X-ray crystal structure of complex (native, […] A); type: binding; details: Mg2+; crystallised with ddCTP and ssDNA, pH 4.5; active site

| SMILES | X-ray crystal structure of complex (SeMet, SAD, 2.24 A) [1] | X-ray crystal structure of complex (native, 1.86 A) [2] |
| --- | --- | --- |
| Nc1ccn([C@H]2CC[C@@H](COP(=O)(O)OP(=O)(O)OP(=O)(O)O)O2)c(=O)n1 [ddCTP] | we determined the crystal structures of N300 in complex with ddCTP |  |
| O=P(O)(O)OP(=O)(O)O [pyrophosphate] |  | a pyrophosphate (PPi) occupies the active site instead of ddCTP |
